The values below come from patent US12552826B2, “PRMT5 inhibitors” (Merck Sharp & Dohme LLC, priority 2018, dated 2026).

The structures appear in SMILES notation. Bounds are passed on as bounds.

In the assay the target is T1, PRMT5 (Homo sapiens, UniProt O14744).
T1 construct: endogenous in cells; host or cells: MCF-7
T1 sequence (O14744 whole entry): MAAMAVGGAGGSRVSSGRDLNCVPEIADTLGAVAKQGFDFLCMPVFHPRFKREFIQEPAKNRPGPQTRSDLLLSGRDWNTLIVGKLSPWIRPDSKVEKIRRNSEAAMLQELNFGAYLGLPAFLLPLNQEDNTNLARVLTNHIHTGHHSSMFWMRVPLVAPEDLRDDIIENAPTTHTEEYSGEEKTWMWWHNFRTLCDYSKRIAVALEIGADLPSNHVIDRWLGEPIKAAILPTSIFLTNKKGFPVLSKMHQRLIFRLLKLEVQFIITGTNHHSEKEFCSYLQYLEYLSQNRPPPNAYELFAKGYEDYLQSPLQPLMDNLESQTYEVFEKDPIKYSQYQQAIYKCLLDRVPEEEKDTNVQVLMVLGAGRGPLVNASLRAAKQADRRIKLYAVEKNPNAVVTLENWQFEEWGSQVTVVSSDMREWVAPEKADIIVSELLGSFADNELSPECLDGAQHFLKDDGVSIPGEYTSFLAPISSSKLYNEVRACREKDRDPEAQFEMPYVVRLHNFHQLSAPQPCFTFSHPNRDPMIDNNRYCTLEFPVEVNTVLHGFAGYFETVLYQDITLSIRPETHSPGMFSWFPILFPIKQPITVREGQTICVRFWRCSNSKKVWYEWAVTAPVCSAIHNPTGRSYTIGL
T1 sequence (Q9BQA1 whole entry partner): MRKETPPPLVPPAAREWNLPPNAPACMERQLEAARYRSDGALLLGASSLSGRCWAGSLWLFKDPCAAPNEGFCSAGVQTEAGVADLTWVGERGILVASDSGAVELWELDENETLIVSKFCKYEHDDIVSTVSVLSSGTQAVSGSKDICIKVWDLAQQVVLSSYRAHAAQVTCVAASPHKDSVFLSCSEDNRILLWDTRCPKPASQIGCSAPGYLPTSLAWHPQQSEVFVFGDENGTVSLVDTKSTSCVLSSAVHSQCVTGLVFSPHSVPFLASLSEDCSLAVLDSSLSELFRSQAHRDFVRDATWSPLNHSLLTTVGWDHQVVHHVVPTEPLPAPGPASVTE
As to the kind of experiment: PRMT5 Cell Target Engagement (TE) Assay. The format is cell-based. As to conditions: MCF-7 cells, 3 days treatment, nuclear SDMA by high content imaging. The text has this:
The PRMT5 TE assay is a biomarker assay for identifying compounds that inhibit symmetric dimethylation of arginine (SDMA) of PRMT5 substrates. The following substrates have been reported for PRMT5: Histone H2A and H4 R3, Histone H3 R2, Histone H3 R8, spliceosome Sm proteins, ribosomal protein RPS10, p53, FEN1, nucleoplasmin, nucleolin, EGFR and EBNA. The assay will focus on detecting symmetrically dimethylated nuclear proteins using high content imaging technology. Detection of the expression of symmetrically dimethylated nuclear proteins is through a mixture of primary rabbit monoclonal antibodies to SDMA (CST 13222), which in turn recognized by an Alexafluor 488 dye-conjugated anti-rabbit IgG secondary antibody. The IN Cell Analyzer 2200 or Opera-Phenix measures nuclear Alexafluor 488 fluorescent dye intensity that is directly related to the level of expression of symmetrically dimethylated nuclear proteins at the single cell level. Nuclear AF488 dye intensities are compared to the mean value for DMSO treated cells (MIN) to report percent of inhibition for each compound-treated well.
In this assay, the cell potency (EC50) of each compound was determined from a ten point (1:3 serial dilution; top compound concentration of 10000 nM) titration curve using the following outlined procedure. Each well of a BD falcon collagen coated black/clear bottom 384-well plate was seeded with 4000 MCF-7 cells in 30 μl media and allowed to attach for 5 hours. Media is ATCC-formulated Eagle's Minimum Essential Medium, Catalog No. 30-2003. The following components were added to the base medium: 0.01 mg/mL human recombinant insulin; fetal bovine serum to a final concentration of 10%. Additional 30 μl of media containing 2× compounds were added to each well. Cells were treated for 3 days in 37° C. CO2 incubator. On day 3, cells were fixed with Cytofix, permeabilized with 0.4% Triton-X-100/Cytofix, and washed with D-PBS without Ca/Mg. Cells were blocked with Licor Odessey blocking reagent for 1 hour at room temperature, followed by incubation with anti-SDMA (1:1000) antibody at 4° C. overnight. 1° antibody was removed, followed by three washings with DPBS without Ca/Mg and 0.05% Tween20. Hoechst (5 μg/mL), Cell Mask deep stain (1:2000) and Alexa488-conjugated goat anti-rabbit IgG (2 μg/mL) was added for 1 hour at room temperature. A final washing step (three washes) was performed before sealing plate for imaging on In Cell Analyzer 2200 or Opera-Phenix. Images from analyzer were uploaded to Columbus for image analysis. IC50 values were determined by 4 parameters robust fit of percent fluorescence units vs. (Log10) compound concentrations.
In turn, `Cc1cccc([C@@H](O)[C@H]2O[C@@H](n3ccc4c(N)ncnc43)[C@H](O)[C@]2(C)O)c1` [Example 38, 7-[(5R)-3-C-methyl-5-C-(3-methylphenyl)-beta-D-ribofuranosyl]-7H-pyrrolo[2,3-d]pyrimidin-4-amine] had an EC50 of 166 nM.

The molecule `C[C@@]1(O)[C@@H]([C@H](O)c2cccc(F)c2F)O[C@@H](n2ccc3c(N)ncnc32)[C@@H]1O` [Example 44, 7-[(5R)-5-C-(2,3-difluorophenyl)-3-C-methyl-beta-D-ribofuranosyl]-7H-pyrrolo[2,3-d]pyrimidin-4-amine] displayed a 50% effective concentration (EC50) of 1060 nM.

For `C[C@@]1(O)[C@@H]([C@@H](O)c2cccc(C(F)(F)F)c2)O[C@@H](n2ccc3c(N)ncnc32)[C@@H]1O` [Example 55, 7-{(5S)-3-C-methyl-5-C-[3-(trifluoromethyl)phenyl]-beta-D-ribofuranosyl}-7H-pyrrolo[2,3-d]pyrimidin-4-amine], the concentration for a half-maximal effect (EC50) was > 10000 nM.

The molecule `Cc1ncnc2c1ccn2[C@@H]1O[C@H]([C@](C)(O)c2cc(C(F)F)c(F)c3c2CNCC3)[C@@](C)(O)[C@H]1O` [Example 91, (2R,3S,4R,5R)-2-((R)-1-(6-(difluoromethyl)-5-fluoro-1,2,3,4-tetrahydroisoquinolin-8-yl)-1-hydroxyethyl)-3-methyl-5-(4-methyl-7H-pyrrolo[2,3-d]pyrimidin-7-yl)tetrahydrofuran-3,4-diol] yielded a 50% effective concentration (EC50) of 0.54 nM.

As for `C[C@]1(O)[C@@H](O)[C@H](n2ccc3c(N)ncnc32)O[C@@H]1[C@](C)(O)c1cccc2c1CNCC2` [Example 63, 7-[6-deoxy-3-C-methyl-5-C-(1,2,3,4-tetrahydroisoquinolin-8-yl)-beta-D-ribo-hexofuranosyl]-7H-pyrrolo[2,3-d]pyrimidin-4-amine], the 50% effective concentration (EC50) turned out to be 182 nM.

With `C[C@]1(O)[C@@H](O)[C@H](n2ccc3c(N)ncnc32)O[C@@H]1[C@](C)(O)c1ccc(F)c(F)c1` [Example 3, (2R,3S,4R,5R)-5-(4-amino-7H-pyrrolo[2,3-d]pyrimidin-7-yl)-2-((R)-1-(3,4-difluorophenyl)-1-hydroxyethyl)-3-methyltetrahydrofuran-3,4-diol], the concentration giving a half-maximal response (EC50) came to 145 nM.

As to `C[C@@]1(O)[C@@H]([C@@H](O)c2cc(F)c(F)c(C(F)F)c2)O[C@@H](n2ccc3c(N)ncnc32)[C@@H]1O` [Example 65, 7-{(5S)-5-C-[3-(difluoromethyl)-4,5-difluorophenyl]-3-C-methyl-beta-D-ribofuranosyl}-7H-pyrrolo[2,3-d]pyrimidin-4-amine], the EC50 was > 10000 nM.

In the case of `C[C@@]1(O)[C@@H]([C@H](O)c2cc(F)cc(C(F)F)c2)O[C@@H](n2ccc3c(N)ncnc32)[C@@H]1O` [Example 4, (2R,3S,4R,5R)-5-(4-amino-7H-pyrrolo[2,3-d]pyrimidin-7-yl)-2-((R)-(3-(difluoromethyl)-5-fluorophenyl)(hydroxy)methyl)-3-methyltetrahydrofuran-3,4-diol], the EC50 came out at 16 nM. That is a double-digit nanomolar value.

Molecule `C[C@@]1(O)[C@@H]([C@H](O)c2cccc(C(F)(F)F)c2)O[C@@H](n2ccc3c(N)ncnc32)[C@@H]1O` [Example 54, 7-{(5R)-3-C-methyl-5-C-[3-(trifluoromethyl)phenyl]-beta-D-ribofuranosyl}-7H-pyrrolo[2,3-d]pyrimidin-4-amine] displayed an EC50 of 391 nM.

With `COc1cccc([C@@H](O)[C@H]2O[C@@H](n3ccc4c(N)ncnc43)[C@H](O)[C@]2(C)O)c1` [Example 36, 7-[(5R)-5-C-(3-methoxyphenyl)-3-C-methyl-beta-D-ribofuranosyl]-7H-pyrrolo[2,3-d]pyrimidin-4-amine], the EC50 amounted to 997 nM. Against the preceding molecule, the EC50 is about 2.5-fold higher.

In turn, `C[C@@]1(O)[C@@H]([C@H](O)c2ccc(F)c(C(F)F)c2F)O[C@@H](n2ccc3c(N)ncnc32)[C@@H]1O` [Example 67, 7-{(5R)-5-C-[3-(difluoromethyl)-2,4-difluorophenyl]-3-C-methyl-beta-D-ribofuranosyl}-7H-pyrrolo[2,3-d]pyrimidin-4-amine] yielded an EC50 of 435 nM.

In turn, `C[C@@]1(O)[C@@H]([C@H](O)c2cccc(Cl)c2)O[C@@H](n2ccc3c(N)ncnc32)[C@@H]1O` [Example 16, 7-[(5R)-5-C-(3-chlorophenyl)-3-C-methyl-beta-D-ribofuranosyl]-7H-pyrrolo[2,3-d]pyrimidin-4-amine] showed an EC50 of 80 nM.

In the case of `C[C@@]1(O)[C@@H]([C@H](O)c2ccc(F)c(F)c2F)O[C@@H](n2ccc3c(N)ncnc32)[C@@H]1O` [Example 50, 7-[(5R)-3-C-methyl-5-C-(2,3,4-trifluorophenyl)-beta-D-ribofuranosyl]-7H-pyrrolo[2,3-d]pyrimidin-4-amine], it took 3240 nM to reach a half-maximal effect (EC50). This EC50 is about 40-fold higher than that of the molecule before.

In the case of `COc1ccc([C@H](O)[C@H]2O[C@@H](n3ccc4c(N)ncnc43)[C@H](O)[C@]2(C)O)cc1` [Example 33, 7-[(5S)-5-C-(4-methoxyphenyl)-3-C-methyl-beta-D-ribofuranosyl]-7H-pyrrolo[2,3-d]pyrimidin-4-amine], the half-maximal effective concentration (EC50) was > 10000 nM.

With `C[C@@]1(O)[C@@H]([C@H](O)c2cc(C(F)F)ccn2)O[C@@H](n2ccc3c(N)ncnc32)[C@@H]1O` [Example 72, 7-{(5R)-5-C-[4-(difluoromethyl)pyridin-2-yl]-3-C-methyl-beta-D-ribofuranosyl}-7H-pyrrolo[2,3-d]pyrimidin-4-amine], the EC50 was 2060 nM. This counts as single-digit micromolar.

Take `C[C@@]1(O)[C@@H]([C@@H](O)c2ccccc2)O[C@@H](n2ccc3c(N)ncnc32)[C@@H]1O` [Example 12, 7-[(5S)-3-C-methyl-5-C-phenyl-beta-D-ribofuranosyl]-7H-pyrrolo[2,3-d]pyrimidin-4-amine]: the half-maximal effective concentration (EC50) was > 10000 nM.

Regarding `C[C@@]1(O)[C@@H]([C@@H](O)c2cc(C(F)F)c(F)c3c2CNCC3)O[C@@H](n2ccc3c(N)ncnc32)[C@@H]1O` [Example 9, (2R,3S,4R,5R)-5-(4-amino-7H-pyrrolo[2,3-d]pyrimidin-7-yl)-2-((S)-(6-(difluoromethyl)-5-fluoro-1,2,3,4-tetrahydroisoquinolin-8-yl)(hydroxy)methyl)-3-methyltetrahydrofuran-3,4-diol], the concentration for a half-maximal effect (EC50) came to 157 nM.

`C[C@@]1(O)[C@@H]([C@@H](O)c2ccc(F)c(F)c2)O[C@@H](n2ccc3c(N)ncnc32)[C@@H]1O` [Example 2, (2R,3S,4R,5R)-5-(4-amino-7H-pyrrolo[2,3-d]pyrimidin-7-yl)-2-((S)-(3,4-difluorophenyl)(hydroxy)methyl)-3-methyltetrahydrofuran-3,4-diol]: the 50% effective concentration (EC50) was > 10000 nM.

Regarding `C[C@@]1(O)[C@@H]([C@H](O)c2ccc(Cl)cc2F)O[C@@H](n2ccc3c(N)ncnc32)[C@@H]1O` [Example 42, 7-[(5R)-5-C-(4-chloro-2-fluorophenyl)-3-C-methyl-beta-D-ribofuranosyl]-7H-pyrrolo[2,3-d]pyrimidin-4-amine], a half-maximal effect (EC50) was put at 1820 nM. This counts as single-digit micromolar.

Turning to `C[C@@]1(O)[C@@H]([C@H](O)c2cccc(C(F)F)c2)O[C@@H](n2ccc3c(N)ncnc32)[C@@H]1O` [Example 56, 7-{(5R)-5-C-[3-(difluoromethyl)phenyl]-3-C-methyl-beta-D-ribofuranosyl}-7H-pyrrolo[2,3-d]pyrimidin-4-amine], a half-maximal response (EC50) required 32 nM.

Regarding `C[C@@]1(O)[C@@H]([C@@H](O)c2ccc(Cl)c(Cl)c2)O[C@@H](n2ccc3c(N)ncnc32)[C@@H]1O` [Example 14, 7-[(5S)-5-C-(3,4-dichlorophenyl)-3-C-methyl-beta-D-ribofuranosyl]-7H-pyrrolo[2,3-d]pyrimidin-4-amine], the EC50 is > 10000 nM.

Regarding `C[C@]1(O)[C@@H](O)[C@H](n2ccc3c(N)ncnc32)O[C@@H]1[C@@](C)(O)c1cccc2c1CNCC2` [Example 69, 7-[6-deoxy-3-C-methyl-5-C-(1,2,3,4-tetrahydroisoquinolin-8-yl)-beta-D-allofuranosyl]-7H-pyrrolo[2,3-d]pyrimidin-4-amine], the concentration giving a half-maximal response (EC50) was 507 nM.

In the case of `C[C@@]1(O)[C@@H]([C@H](O)c2ccc(F)cc2Cl)O[C@@H](n2ccc3c(N)ncnc32)[C@@H]1O` [Example 48, 7-[(5R)-5-C-(2-chloro-4-fluorophenyl)-3-C-methyl-beta-D-ribofuranosyl]-7H-pyrrolo[2,3-d]pyrimidin-4-amine], the concentration giving a half-maximal response (EC50) is > 10000 nM.

Turning to `C[C@@]1(O)[C@@H]([C@@H](O)c2ccc(F)cc2Cl)O[C@@H](n2ccc3c(N)ncnc32)[C@@H]1O` [Example 49, 7-[(5S)-5-C-(2-chloro-4-fluorophenyl)-3-C-methyl-beta-D-ribofuranosyl]-7H-pyrrolo[2,3-d]pyrimidin-4-amine], the EC50 is > 10000 nM.
